Laboratory results taken from patent EP0230052B1, “Immunoamplifiers and related Compositions” (Gottlieb, Arthur A., priority 1985, dated 1987).

How the values were obtained:
[1] = system: DH skin reaction to tetanus toxoid; set-up: species or system human; details: in vivo
[2] = system: IL-2 production in response to mitogen PHA; assay: IL-2 in vitro test (PHA-stimulated IL-2 production); format: cell-based, human; details: optimal concentration of TGG
Source text: The production of IL-2 in response to mitogen was characterized by the existence of the same optimal concentration phenomenon (paradoxical effect) described above.

DH response = assay: Modulator assay methods of the '379 patent (amplifier activity, DH test); format: in vivo, human; details: other moieties in effluents of Example 6B process

| Substance | optimum concentration for maximum immune effect [1] [fM] | ratio of PHA-stimulated IL-2 production with TGG added to without TGG ([2]; subject #1) | ratio of PHA-stimulated IL-2 production with TGG added to without TGG ([2]; subject #2) | immunological activity as assayed by DH test (DH response) |
| --- | --- | --- | --- | --- |
| Tyrosylglycylglycine [TGG] | ~3 | 1.45 | 2.55 | – |
| Ser-Phe | – | – | – | None of these other moieties appeared to possess immunological activity |
| Gly-Gly | – | – | – | None of these other moieties appeared to possess immunological activity |
